The values that follow come from the Kinase Knowledgebase extract (Sharma et al. 2016).

In general, pIC50 refers to −log10 of the IC50, conventionally taken in molar units. Low values mean a large IC50, high ones a small IC50.

pIC50: −log10 of the molar value.

The target of one assay is PIK3CA (human) (UniProt P42336). Briefly: Inhibition of PIK3CA Kinase Activity.
For the next assay, the target named is PIK3CD (Human) (UniProt O00329). Briefly: Inhibition of PIK3CD Kinase Activity.
A further assay has as its target PIK3CB (Human) (UniProt P42338). In words: Inhibition of PIK3CB Kinase Activity.
Another assay deals with PIK3CG (human) (UniProt P48736). Briefly: Inhibition of PIK3CG Kinase Activity.
PIK3CG (human), sequence (P48736 whole entry, looked up): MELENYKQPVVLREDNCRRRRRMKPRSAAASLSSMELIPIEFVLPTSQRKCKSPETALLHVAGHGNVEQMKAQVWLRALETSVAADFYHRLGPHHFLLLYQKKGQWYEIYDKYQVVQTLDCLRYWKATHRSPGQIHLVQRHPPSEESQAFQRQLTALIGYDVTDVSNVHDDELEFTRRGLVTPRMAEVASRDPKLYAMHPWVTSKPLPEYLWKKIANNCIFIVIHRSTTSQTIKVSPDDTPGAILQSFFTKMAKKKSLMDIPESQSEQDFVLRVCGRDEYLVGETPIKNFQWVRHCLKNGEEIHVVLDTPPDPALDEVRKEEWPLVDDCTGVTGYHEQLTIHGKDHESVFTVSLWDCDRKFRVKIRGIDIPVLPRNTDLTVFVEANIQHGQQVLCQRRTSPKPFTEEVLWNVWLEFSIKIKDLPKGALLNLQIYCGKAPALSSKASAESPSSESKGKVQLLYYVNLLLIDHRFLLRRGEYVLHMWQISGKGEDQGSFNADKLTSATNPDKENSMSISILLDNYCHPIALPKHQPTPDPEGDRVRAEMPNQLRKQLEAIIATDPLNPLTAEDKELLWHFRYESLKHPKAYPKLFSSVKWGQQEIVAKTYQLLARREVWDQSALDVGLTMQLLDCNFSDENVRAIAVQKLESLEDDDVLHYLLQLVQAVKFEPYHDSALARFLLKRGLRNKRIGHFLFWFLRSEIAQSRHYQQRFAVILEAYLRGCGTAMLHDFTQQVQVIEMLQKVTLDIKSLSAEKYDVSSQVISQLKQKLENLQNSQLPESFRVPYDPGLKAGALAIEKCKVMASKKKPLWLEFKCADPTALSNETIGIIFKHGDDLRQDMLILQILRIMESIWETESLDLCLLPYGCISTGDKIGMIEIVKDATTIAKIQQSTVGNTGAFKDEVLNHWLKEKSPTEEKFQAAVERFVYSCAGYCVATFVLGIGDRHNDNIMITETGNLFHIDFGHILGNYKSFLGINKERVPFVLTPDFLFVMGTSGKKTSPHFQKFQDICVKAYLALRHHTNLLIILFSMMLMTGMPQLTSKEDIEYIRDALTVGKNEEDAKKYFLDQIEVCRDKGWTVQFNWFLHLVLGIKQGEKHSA

PIK3CA (human), sequence (P42336 whole entry, looked up): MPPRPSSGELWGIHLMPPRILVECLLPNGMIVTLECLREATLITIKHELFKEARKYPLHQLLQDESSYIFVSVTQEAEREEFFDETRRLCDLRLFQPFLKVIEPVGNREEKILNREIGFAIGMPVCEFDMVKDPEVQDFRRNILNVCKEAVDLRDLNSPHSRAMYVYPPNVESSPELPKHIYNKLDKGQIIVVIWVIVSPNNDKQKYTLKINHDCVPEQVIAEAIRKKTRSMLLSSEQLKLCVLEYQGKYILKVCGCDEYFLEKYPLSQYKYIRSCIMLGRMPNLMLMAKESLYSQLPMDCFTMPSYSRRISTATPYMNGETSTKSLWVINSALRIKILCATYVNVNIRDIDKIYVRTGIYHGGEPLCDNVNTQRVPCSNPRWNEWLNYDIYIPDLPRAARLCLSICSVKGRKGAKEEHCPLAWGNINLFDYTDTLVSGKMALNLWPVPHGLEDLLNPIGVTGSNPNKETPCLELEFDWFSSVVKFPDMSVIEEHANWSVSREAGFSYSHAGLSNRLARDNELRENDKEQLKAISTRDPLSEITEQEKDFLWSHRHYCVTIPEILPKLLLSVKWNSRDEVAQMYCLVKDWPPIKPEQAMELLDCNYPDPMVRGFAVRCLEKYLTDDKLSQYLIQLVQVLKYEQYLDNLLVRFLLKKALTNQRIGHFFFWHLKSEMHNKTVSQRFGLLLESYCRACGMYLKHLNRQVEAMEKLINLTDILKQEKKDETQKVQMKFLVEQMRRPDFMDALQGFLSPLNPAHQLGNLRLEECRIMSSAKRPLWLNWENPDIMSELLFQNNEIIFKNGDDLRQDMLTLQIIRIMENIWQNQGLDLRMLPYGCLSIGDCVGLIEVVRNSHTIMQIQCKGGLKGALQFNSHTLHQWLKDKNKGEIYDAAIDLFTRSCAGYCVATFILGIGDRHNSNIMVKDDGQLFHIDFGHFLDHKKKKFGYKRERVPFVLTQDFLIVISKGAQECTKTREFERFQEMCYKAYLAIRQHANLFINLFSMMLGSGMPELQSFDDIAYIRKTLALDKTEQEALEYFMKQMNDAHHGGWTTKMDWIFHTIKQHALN
PIK3CB (Human), sequence (P42338 whole entry, looked up): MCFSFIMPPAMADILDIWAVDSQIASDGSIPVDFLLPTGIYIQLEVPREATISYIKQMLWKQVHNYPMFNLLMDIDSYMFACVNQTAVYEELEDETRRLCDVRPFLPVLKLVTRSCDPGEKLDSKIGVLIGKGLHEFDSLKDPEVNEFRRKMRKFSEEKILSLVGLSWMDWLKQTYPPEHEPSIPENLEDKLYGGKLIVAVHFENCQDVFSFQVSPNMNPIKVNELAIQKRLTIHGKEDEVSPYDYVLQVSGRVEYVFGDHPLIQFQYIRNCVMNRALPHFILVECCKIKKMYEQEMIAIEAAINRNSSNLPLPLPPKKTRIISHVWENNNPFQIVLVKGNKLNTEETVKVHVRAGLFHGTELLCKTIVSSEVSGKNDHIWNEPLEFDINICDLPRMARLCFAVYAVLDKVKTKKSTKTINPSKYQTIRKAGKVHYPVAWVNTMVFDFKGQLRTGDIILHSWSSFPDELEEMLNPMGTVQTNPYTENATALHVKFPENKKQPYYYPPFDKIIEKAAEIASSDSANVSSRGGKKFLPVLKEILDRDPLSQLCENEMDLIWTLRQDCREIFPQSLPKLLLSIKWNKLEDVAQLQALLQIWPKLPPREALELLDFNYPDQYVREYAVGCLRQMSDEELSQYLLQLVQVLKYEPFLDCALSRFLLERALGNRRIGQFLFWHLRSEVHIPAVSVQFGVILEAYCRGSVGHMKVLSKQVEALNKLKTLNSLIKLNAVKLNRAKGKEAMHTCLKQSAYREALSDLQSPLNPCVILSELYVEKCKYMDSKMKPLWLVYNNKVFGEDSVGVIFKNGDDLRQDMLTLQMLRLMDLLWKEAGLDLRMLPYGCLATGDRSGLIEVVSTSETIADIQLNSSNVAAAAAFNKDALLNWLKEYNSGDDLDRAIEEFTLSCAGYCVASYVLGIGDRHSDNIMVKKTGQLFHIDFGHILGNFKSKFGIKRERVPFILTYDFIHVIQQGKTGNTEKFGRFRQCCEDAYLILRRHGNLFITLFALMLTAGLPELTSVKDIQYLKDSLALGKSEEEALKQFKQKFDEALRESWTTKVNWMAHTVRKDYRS
PIK3CD (Human), sequence (O00329 whole entry, looked up): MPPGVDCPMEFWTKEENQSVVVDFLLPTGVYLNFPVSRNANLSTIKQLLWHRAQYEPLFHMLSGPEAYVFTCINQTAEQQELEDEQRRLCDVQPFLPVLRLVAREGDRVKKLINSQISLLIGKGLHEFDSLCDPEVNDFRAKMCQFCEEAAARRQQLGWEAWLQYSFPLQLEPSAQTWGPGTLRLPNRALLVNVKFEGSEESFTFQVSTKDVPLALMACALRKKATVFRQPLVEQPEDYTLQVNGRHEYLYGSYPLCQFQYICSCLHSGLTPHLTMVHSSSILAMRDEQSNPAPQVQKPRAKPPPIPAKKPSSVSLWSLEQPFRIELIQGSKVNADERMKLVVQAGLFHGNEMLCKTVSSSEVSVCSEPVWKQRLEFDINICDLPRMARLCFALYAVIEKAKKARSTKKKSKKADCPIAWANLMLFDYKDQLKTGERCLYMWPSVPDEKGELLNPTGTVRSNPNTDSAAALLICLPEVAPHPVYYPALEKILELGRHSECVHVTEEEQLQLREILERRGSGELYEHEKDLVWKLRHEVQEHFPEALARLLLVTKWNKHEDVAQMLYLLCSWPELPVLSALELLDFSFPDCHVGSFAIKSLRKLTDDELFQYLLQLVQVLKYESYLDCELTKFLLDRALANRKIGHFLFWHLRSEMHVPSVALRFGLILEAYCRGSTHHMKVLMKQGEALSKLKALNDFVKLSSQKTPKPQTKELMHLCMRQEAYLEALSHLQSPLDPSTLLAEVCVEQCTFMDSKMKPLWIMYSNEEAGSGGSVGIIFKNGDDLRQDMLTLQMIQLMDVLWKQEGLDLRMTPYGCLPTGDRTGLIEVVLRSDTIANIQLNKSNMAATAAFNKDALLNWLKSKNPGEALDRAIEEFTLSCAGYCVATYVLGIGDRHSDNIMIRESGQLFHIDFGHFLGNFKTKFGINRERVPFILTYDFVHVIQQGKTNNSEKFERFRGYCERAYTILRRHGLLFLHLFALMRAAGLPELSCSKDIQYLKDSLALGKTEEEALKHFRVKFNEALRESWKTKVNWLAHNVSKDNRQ

Consider `COc1cc(-c2ccc3nc(C)c(-c4cnc(N)c(C(F)(F)F)c4)n3n2)ccc1OCCCNC(=O)c1ccc(F)c(F)c1`, for which the negative-log IC50 (pIC50) at PIK3CA (human) was 5.45.

In the case of `COc1ccc(-c2ccc3nc(C)c(-c4cccnc4)n3n2)cc1OC`, the results for the pIC50 against PIK3CD (Human), against PIK3CA (human) and against PIK3CB (Human) were 6.51, 7.23 and 5.86, respectively.

Take `COc1cccc(NC(=O)NCCCOc2ccc(-c3ccc4nc(C)c(-c5cnc(N)c(C(F)(F)F)c5)n4n3)cc2OC)c1`: the pIC50 on PIK3CA (human) is 6.03.

Regarding `COc1cc(-c2ccc3nc(C)c(-c4cnc(N)c(C(F)(F)F)c4)n3n2)ccc1OC1CCNCC1`, the pIC50 at PIK3CG (human) is 5.93; at PIK3CD (Human), 6.82; at PIK3CA (human), 7.20; on PIK3CB (Human), 5.98.

On to `COc1cc(-c2ccc3nc(C)c(-c4cnc(N)c(C(F)(F)F)c4)n3n2)ccc1OCCNC(=O)Nc1cccc(C(F)(F)F)c1`, for which the pIC50 at PIK3CA (human) was 5.43.
